Measurements from publication PMC6934184, “Selective DNA-PKcs inhibition extends the therapeutic index of localized radiotherapy and chemotherapy” (The Journal of Clinical Investigation, 2019).

Molecular target: T1, PIM1 (Homo sapiens, UniProt P11309)
T1 construct: purchased Thermo Fisher Scientific (Life Technologies) SelectScreen
Test: SelectScreen Z'LYTE
Format: biochemical
How it was run: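 Percent values come from Thermo SelectScreen profiling of NU5455, combining activity and binding assays. CSF1R was run in Z'LYTE format at Km app ATP, and CAMK1 in Adapta format with ATP listed at 10.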

T1 sequence (P11309 whole entry): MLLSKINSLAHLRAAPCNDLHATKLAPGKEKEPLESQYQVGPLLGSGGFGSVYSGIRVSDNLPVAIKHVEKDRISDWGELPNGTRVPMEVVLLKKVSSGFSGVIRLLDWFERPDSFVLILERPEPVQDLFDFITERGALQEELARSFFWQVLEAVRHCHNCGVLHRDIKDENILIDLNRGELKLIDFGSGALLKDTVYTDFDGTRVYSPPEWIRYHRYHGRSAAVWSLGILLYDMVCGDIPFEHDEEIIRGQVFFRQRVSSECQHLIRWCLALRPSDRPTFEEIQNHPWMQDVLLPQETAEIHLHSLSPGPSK

CN(C(=O)CN1CCOCC1)c1ccc2sc3c(-c4cccc5c(=O)cc(N6CC7CCC(C6)O7)oc45)cccc3c2c1 [NU5455]
inhibition at 1 µM: -1%
